“And” between values parts separate entries of the source, which are not always exact repeats. Equal values may be shown once.
Assay: Absorbance and fluorescence measurements (excitation maximum, emission maximum, quantum yield vs coumarin 151)
Format: physicochemical
Parameters: key to Quantum Yield: fraction relative to coumarin 151 in ethanol standard
Conditions: for λex: absorbance/excitation maximum; for Quantum Yield: coumarin 151 in ethanol as standard; for λem: emission maximum
Description: All reagents and solvents were acquired from commercially available suppliers and used without further purification. Methanol(dried on molecular sieves-Acroseal) was obtained from Acros. […] 1H and 13C NMR spectra were obtained on a Bruker NMR spectrometer at 500/400 and 125/100 MHz respectively. The data is reported as follows: chemical shift in ppm (δ), multiplicity (s=singlet, d=doublet, dd=doublet of doublets, t=triplet, dt=doublet of triplets, td=triplet of doublets, q=quartet, p=pentet, m=multiplet). Coupling constants are reported in Hertz (Hz) and were automatically generated using known NMR analyzer software (MestReNova), these were then subsequently curated. High-resolution mass spectra were obtained using the positive ESI method for all the compounds, obtained in an Ion Cyclotron Resonance (ICR) spectrometer. Absorbance spectra were obtained using an Agilent 8453 UV-visible spectroscopy system. Fluorescence was measured on a Varian (Agilent) Cary Eclipse Fluorimeter. Quantum yield measurements were calculated and reported using coumarin 151 in ethanol as a standard.^1 Fluorescence scans were obtained using a 2.5 mm slit width unless otherwise noted.
The fluorescence was also measured in different solvents to examine the solvent effects.

[1] = 2.5 mm slit width, measurements run with methanol

| Compound | λex (measurements run with methanol) [nm] | Quantum Yield [1] | λem [1] | Quantum Yield (10 mm slit) | λem (10 mm slit width) [nm] | fluorescence (observation in words) |
| --- | --- | --- | --- | --- | --- | --- |
| 2-(3,4,5-trimethoxyphenyl)imidazo[1,2-a]pyridin-3-amine [Compound 10a] | 343 | 0.36 | 474 nm | – | – | – |
| Nc1c(-c2ccc3ccccc3c2)nc2cccnn12 [Compound 10ab, 2-(naphthalen-2-yl)imidazo[1,2-b]pyridazin-3-amine] | 438 | 0.04 | 543 nm | – | – | – |
| COc1ccc(-c2nc3cccnn3c2N)cc1 [Compound 10ac, 2-(4-methoxyphenyl)imidazo[1,2-b]pyridazin-3-amine] | 435 | 0.03 | 543 nm | – | – | – |
| COc1cc(-c2nc3cccnn3c2N)cc(OC)c1OC [Compound 10ad, 2-(3,4,5-trimethoxyphenyl)imidazo[1,2-b]pyridazin-3-amine] | 429 | 0.03 | 541 nm | – | – | – |
| COc1ccc(-c2nc3cccnn3c2N)c(OC)c1 [Compound 10ae, 2-(2,4-dimethoxyphenyl)imidazo[1,2-b]pyridazin-3-amine] | 433 | 0.02 | 555 nm | – | – | – |
| Nc1c(-c2ccc(N(c3ccccc3)c3ccccc3)cc2)nc2cccnn12 [Compound 10af, 2-(4-(diphenylamino)phenyl)imidazo[1,2-b]pyridazin-3-amine] | 438 | 0.05 | 544 nm | – | – | – |
| CCN(CC)c1ccc(-c2nc3cccnn3c2N)cc1 [Compound 10ag, 2-(4-(diethylamino)phenyl)imidazo[1,2-b]pyridazin-3-amine] | 444 | 0.06 | 572 nm | – | – | – |
| COC(=O)c1ccn2c(N)c(-c3ccccc3)nc2c1 [Compound 10ah, methyl 3-amino-2-phenylimidazo[1,2-a]pyridine-7-carboxylate] | 394 | 0.40 | 510 nm | – | – | – |
| COC(=O)c1ccn2c(N)c(-c3ccc4ccccc4c3)nc2c1 [Compound 10ai, methyl 3-amino-2-(naphthalen-2-yl)imidazo[1,2-a]pyridine-7-carboxylate] | 434 | 0.47 | 512 nm | – | – | – |
| COC(=O)c1ccn2c(N)c(-c3ccc(-c4ccccc4)cc3)nc2c1 [Compound 10aj, methyl 2-([1,1′-biphenyl]-4-yl)-3-aminoimidazo[1,2-a]pyridine-7-carboxylate] | 403 | 0.45 | 517 nm | – | – | – |
| COC(=O)c1ccn2c(N)c(-c3ccc(OC)cc3)nc2c1 [Compound 10ak, methyl 3-amino-2-(4-methoxyphenyl)imidazo[1,2-a]pyridine-7-carboxylate] | 394 | 0.40 | 510 nm | – | – | – |
| COC(=O)c1ccn2c(N)c(-c3cc(OC)c(OC)c(OC)c3)nc2c1 [Compound 10al, methyl 3-amino-2-(3,4,5-trimethoxyphenyl)imidazo[1,2-a]pyridine-7-carboxylate] | 399 | 0.51 | 512 nm | – | – | – |
| COC(=O)c1ccn2c(N)c(-c3ccc(OC)cc3OC)nc2c1 [Compound 10am, methyl 3-amino-2-(2,4-dimethoxyphenyl)imidazo[1,2-a]pyridine-7-carboxylate] | 402 | 0.49 | 519 nm | – | – | – |
| COC(=O)c1ccn2c(N)c(-c3ccc(N(c4ccccc4)c4ccccc4)cc3)nc2c1 [Compound 10an, methyl 3-amino-2-(4-(diphenylamino)phenyl)imidazo[1,2-a]pyridine-7-carboxylate] | 430 | 0.44 | 529 nm | – | – | – |
| CCN(CC)c1ccc(-c2nc3cc(C(=O)OC)ccn3c2N)cc1 [Compound 10ao, methyl 3-amino-2-(4-(diethylamino)phenyl)imidazo[1,2-a]pyridine-7-carboxylate] | 432 | 0.25 | 540 nm | – | – | – |
| CC(C)(C)Nc1c(-c2ccc(-c3nc4ccccn4c3NC(C)(C)C)cc2)nc2ccccn12 [Compound 10ap, 2,2′-(1,4-phenylene)bis(N-(tert-butyl)imidazo[1,2-a]pyridin-3-amine)] | 344 | 0.30 | 458 nm | – | – | – |
| COc1ccc(-c2nc3ccc(-c4ccccc4)cn3c2N)cc1 [Compound 10ar, 2-(4-methoxyphenyl)-6-phenylimidazo[1,2-a]pyridin-3-amine] | 350 | 0.09 | 510 nm | – | – | – |
| COc1ccc(-c2nc3ccc(N4CCCCC4)cn3c2N)cc1 [Compound 10as, 2-(4-methoxyphenyl)-6-(piperidin-1-yl)imidazo[1,2-a]pyridin-3-amine] | 341 | 0.07 | 479 nm | – | – | – |

| Compound | λex (measurements run with methanol) [nm] | Quantum Yield [1] | λem [1] | Quantum Yield (10 mm slit) | λem (10 mm slit width) [nm] | fluorescence (observation in words) |
| --- | --- | --- | --- | --- | --- | --- |
| COc1ccc(-c2nc3cc(OC)ccn3c2N)cc1 [Compound 10at, 7-methoxy-2-(4-methoxyphenyl)imidazo[1,2-a]pyridin-3-amine] | 344 | 0.10 | 500 nm | – | – | – |
| COc1ccn2c(N)c(-c3ccc([N+](=O)[O-])cc3)nc2c1 [Compound 10au, 7-methoxy-2-(4-nitrophenyl)imidazo[1,2-a]pyridin-3-amine] | 360 | – | – | – | – | – |
| N#Cc1ccc(-c2nc3ccc(N4CCCCC4)cn3c2N)cc1 [Compound 10av, 4-(3-amino-6-(piperidin-1-yl)imidazo[1,2-a]pyridin-2-yl)benzonitrile] | 375 | 0.03 | 482 nm | – | – | – |
| Nc1c(-c2ccc([N+](=O)[O-])cc2)nc2ccc(N3CCCCC3)cn12 [Compound 10aw, 2-(4-nitrophenyl)-6-(piperidin-1-yl)imidazo[1,2-a]pyridin-3-amine] | 390 | – | – | – | – | – |
| COc1cc(-c2nc3cc(-c4ccncc4)ccn3c2N)cc(OC)c1OC [Compound 10ax, 7-(pyridin-4-yl)-2-(3,4,5-trimethoxyphenyl)imidazo[1,2-a]pyridin-3-amine] | 392 | 0.23 | 545 nm | – | – | – |
| CCN(CC)c1ccc(-c2nc3cc(-c4ccncc4)ccn3c2N)cc1 [Compound 10ay, 2-(4-(diethylamino)phenyl)-7-(pyridin-4-yl)imidazo[1,2-a]pyridin-3-amine] | 435 | 0.06 | 581 nm | – | – | – |
| COc1cc(-c2nc3cc([N+](=O)[O-])ccn3c2N)cc(OC)c1OC [Compound 10az, 7-nitro-2-(3,4,5-trimethoxyphenyl)imidazo[1,2-a]pyridin-3-amine] | 485 | – | – | 0.11 | 651 | – |
| COc1cccc(-c2nc3ccccn3c2N)c1OC [Compound 10b, 2-(2,3-dimethoxyphenyl)imidazo[1,2-a]pyridin-3-amine] | 341 | 0.40 | 471 nm | – | – | – |
| CCN(CC)c1ccc(-c2nc3cc([N+](=O)[O-])ccn3c2N)cc1 [Compound 10ba, 2-(4-(diethylamino)phenyl)-7-nitroimidazo[1,2-a]pyridin-3-amine] | 550 | – | – | 0.09 | 720 | fluorescence intensity is low |
| COc1cc(-c2nc3ccccn3c2N)cc(OC)c1OC [Compound 10c, 2-(3,4,5-trimethoxyphenyl)imidazo[1,2-a]pyridin-3-amine] | 343 | 0.38 | 472 nm | – | – | – |
| COc1cc(OC)cc(-c2nc3ccccn3c2N)c1 [Compound 10d, 2-(3,5-dimethoxyphenyl)imidazo[1,2-a]pyridin-3-amine] | 344 | 0.35 | 473 nm and 478 nm | – | – | – |
| Nc1c(-c2ccc3ccccc3c2)nc2ccccn12 [Compound 10e, 2-(naphthalen-2-yl)imidazo[1,2-a]pyridin-3-amine] | 345 | 0.28 | 475 nm | – | – | – |
| Nc1c(-c2ccccc2)nc2ccccn12 [Compound 10f, 2-phenylimidazo[1,2-a]pyridin-3-amine] | 339 | 0.30 | 473 nm | – | – | – |
| COc1ccc(-c2nc3ccccn3c2N)cc1 [Compound 10g, 2-(4-methoxyphenyl)imidazo[1,2-a]pyridin-3-amine] | 340 | 0.39 | 472 nm | – | – | – |
| Nc1c(-c2ccccn2)nc2ccccn12 [Compound 10h, 2-(pyridin-2-yl)imidazo[1,2-a]pyridin-3-amine] | 370 | – | – | – | – | – |
| Nc1c(-c2ccccc2[N+](=O)[O-])nc2ccccn12 [Compound 10i, 2-(2-nitrophenyl)imidazo[1,2-a]pyridin-3-amine] | 330 | – | – | – | – | – |
| Nc1c(-c2cccc([N+](=O)[O-])c2)nc2ccccn12 [Compound 10j, 2-(3-nitrophenyl)imidazo[1,2-a]pyridin-3-amine] | 350 | – | – | – | – | – |
| Nc1c(-c2ccc([N+](=O)[O-])cc2)nc2ccccn12 [Compound 10k, 2-(4-nitrophenyl)imidazo[1,2-a]pyridin-3-amine] | 304 | – | – | – | – | did not show any observable fluorescence intensity |

From patent US20260071117A1, “FUNABLE FLUORESCENT COMPOUNDS AND USES THEREOF” (Arizona Board of Regents on Behalf of the University of …, priority 2021, published 2026)
